Our source for the IC50 values is patent publication US20260085067A1, “CYCLIC SULFONAMIDE RIBONUCLEOTIDE REDUCTASE (RNR) INHIBITORS AND USES THEREOF” (Boundless Bio, Inc., priority 2022, published 2026).

Experiment [1] deals with pCHK1 (S345) in Colo320 DM cells. The experiment is described as follows: Alphalisa assay, detection of pCHK1 (S345) in Colo320 DM cells. The experiment is classed as cell-based, human. As to conditions: Homo sapiens, COLO 320DM, compound overnight (approximately 16 hours). The protocol:
Colo320 DM cells (ATCC #CCL-220, derived from human colorectal adenocarcinoma, Dukes' type C) were seeded on a […], cell culture treated assay plate at a density of 50,000 cells/well in 200 μL of RPMI-1640 media supplemented with 10% Fetal Bovine Serum and incubated at 37° C. overnight. The following day, test compound dilutions were added directly to the plated cells by a Tecan digital dispenser to a final DMSO concentration of <0.5%. and incubated at 37° C. overnight (approximately 16 hours). The following day all cell culture media was removed from the cells. 75 μL of 1×AlphaLisa lysis buffer was added to each well and plates were agitated on a shaker for 30 minutes at room temperature. The lysis of cells and detection of pCHK1 (S345) were performed with reagents contained within the AlphaLisa Sure Fire assay kit (Perkin Elmer #ALSU-PCHK1-A) according to the manufacturer's instructions. 10 μL of each lysate was then transferred to a white, 384-well assay plate (Perkin Elmer #6008280). 5 μL of Acceptor mix was then added to each well of lysate in the white, 384-well assay plate and incubated in the dark at room temperature for 60 minutes. 5 μL of Donor mix was then added to each well of the white, 384-well assay plate in subdued light and incubated at room temperature for 60 minutes. Plates were read on an Alpha Technology-compatible plate reader using standard AlphaLisa settings.
For orientation: Bead proximity is the source of the signal in Alpha formats.

In experiment [2] the target is T1, RNR (RNR1:RNR2 1:1) (Homo sapiens, UniProt P23921).
T1 sequence (P23921 1-792): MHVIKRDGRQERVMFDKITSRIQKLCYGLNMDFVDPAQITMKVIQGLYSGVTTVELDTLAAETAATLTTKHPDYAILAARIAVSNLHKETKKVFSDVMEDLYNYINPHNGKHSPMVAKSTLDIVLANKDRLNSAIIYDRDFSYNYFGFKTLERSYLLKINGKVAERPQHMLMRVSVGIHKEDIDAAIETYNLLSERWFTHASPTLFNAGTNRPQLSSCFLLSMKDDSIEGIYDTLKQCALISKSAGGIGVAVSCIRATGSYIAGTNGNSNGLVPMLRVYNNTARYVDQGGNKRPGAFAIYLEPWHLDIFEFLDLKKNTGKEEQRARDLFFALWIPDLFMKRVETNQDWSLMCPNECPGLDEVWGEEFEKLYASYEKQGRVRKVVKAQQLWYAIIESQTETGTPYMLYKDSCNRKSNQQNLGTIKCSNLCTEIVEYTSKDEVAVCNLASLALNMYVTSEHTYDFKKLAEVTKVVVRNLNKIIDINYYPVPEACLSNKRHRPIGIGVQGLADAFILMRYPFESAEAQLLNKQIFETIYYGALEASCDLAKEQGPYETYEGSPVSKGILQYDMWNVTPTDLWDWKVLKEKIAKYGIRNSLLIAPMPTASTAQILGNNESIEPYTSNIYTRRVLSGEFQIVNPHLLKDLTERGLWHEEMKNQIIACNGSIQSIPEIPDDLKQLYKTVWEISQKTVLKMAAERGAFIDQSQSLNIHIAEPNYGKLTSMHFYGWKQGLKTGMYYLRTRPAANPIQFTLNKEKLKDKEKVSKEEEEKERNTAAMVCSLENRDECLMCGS
The experiment is described as follows: RNR enzyme activity, rapid-fire mass spectrometry (RF/MS) assay. The experiment is classed as biochemical. As to conditions: [RNR] 50 nM, 1:1 RNR1:RNR2; CDP 5 μM; ATP 1 mM; 37° C., 45 min; compounds screened up to 50 μM. As for the experimental part: A rapid-fire mass spectrometry (RF/MS) assay was used to assess RNR enzyme activity using a 384 well plate and a robotic platform.
The plate layout included two validated reference compounds (Triapine (3-AP) and Hydroxyurea (HU)): • A dose response in duplicate; top concentration: 5 μM (3-AP) and 250 μM (HU), semi-log dilutions. • Spike wells in triplicate randomly spotted at four concentrations: • 250 μM, 100 μM, 30 μM and 2 μM for HU • 5 μM, 2 μM, 0.6 μM and 0.04 μM for 3-AP
First, the multidrop pipes were saturated for 30 minutes with enzymatic solution. Then 30 μL of Stop solution was distributed in column 24. Next, 15 μL of enzyme was distributed in column 1 to 24. Next, a pre-incubation step of 15 minutes at room temperature occurred, followed by distribution of 15 μL of substrate solution (column 1 to 24). Next, the plate was incubated for 45 minutes at 37° C. 30 μL of Stop solution was then distributed to columns 1 to 23.
The final parameters for the enzyme reactions were: • Incubation: 37° C., 45 min • [CDP]: 5 μM; [ATP]: 1 mM; [NADPH]: No • [RNR]final: 50 nM with 1:1 (RNR1:RNR2) ratio • Final volume: 30 μL • Stop solution: 6% HCOOH in water

Molecules are shown by their SMILES.

Broadly, the IC50 is the concentration needed to halve the response being measured. `COC(=O)c1cc(Cl)cc2c1S(=O)(=O)N([C@H](c1n[nH]c(=O)o1)[C@H](C)c1c(F)ccc(C)c1C)CN2C` [Example 19, methyl 6-chloro-2-((1S,2R)-2-(6-fluoro-2,3-dimethylphenyl)-1-(5-oxo-4,5-dihydro-1,3,4-oxadiazol-2-yl)propyl)-4-methyl-3,4-dihydro-2H-benzo[e][1,2,4]thiadiazine-8-carboxylate 1,1-dioxide]: the values for the IC50 in experiment [1] and in experiment [2] were 1000 to 5000 nM and 20 to 100 nM, respectively.
The matching figures for `CCCN1CN([C@H](c2n[nH]c(=O)o2)[C@H](C)c2c(F)ccc(C)c2C)S(=O)(=O)c2ccc(Cl)cc21` [Example 10, 5-((1S,2R)-1-(6-chloro-1,1-dioxido-4-propyl-3,4-dihydro-2H-benzo[e][1,2,4]thiadiazin-2-yl)-2-(6-fluoro-2,3-dimethylphenyl)propyl)-1,3,4-oxadiazol-2 (3H)-one]: no more than 1000 nM and less than 20 nM.
For `Cc1ccc(F)c([C@@H](C)[C@@H](c2n[nH]c(=O)o2)N2CCOc3c(ccc(Cl)c3C)S2(=O)=O)c1C` [Example 36, 5-((1S,2R)-1-(7-chloro-6-methyl-1,1-dioxido-3,4-dihydro-2H-benzo[b][1,4,5]oxathiazepin-2-yl)-2-(6-fluoro-2,3-dimethylphenyl)propyl)-1,3,4-oxadiazol-2 (3H)-one], in that order: 1000 to 5000 nM and less than 20 nM.
`Cc1ccc(F)c([C@@H](C)[C@@H](c2n[nH]c(=O)o2)N2CCOc3cc(Cl)cnc3S2(=O)=O)c1C` [Example 16, 5-((1S,2R)-1-(7-chloro-1,1-dioxido-3,4-dihydro-2H-pyrido[3,2-b][1,4,5]oxathiazepin-2-yl)-2-(6-fluoro-2,3-dimethylphenyl)propyl)-1,3,4-oxadiazol-2 (3H)-one]: the half-maximal inhibitory concentration (IC50) in experiment [1] lay within 1000 to 5000 nM; in experiment [2], 20 to 100 nM.
For `Cc1ccc(F)c([C@@H](C)[C@@H](c2n[nH]c(=O)o2)N2CN([C@@H]3CCN(CCF)C3)c3cc(Cl)ccc3S2(=O)=O)c1C` [Example 104, 5-((1S,2R)-1-(6-chloro-4-((R)-1-(2-fluoroethyl)pyrrolidin-3-yl)-1,1-dioxido-3,4-dihydro-2H-benzo[e][1,2,4]thiadiazin-2-yl)-2-(6-fluoro-2,3-dimethylphenyl)propyl)-1,3,4-oxadiazol-2 (3H)-one], in that order: no more than 1000 nM and less than 20 nM.
As for `Cc1ccc(F)c([C@@H](C)[C@@H](c2n[nH]c(=O)o2)N2CN([C@H]3CCN(C)C3)c3cc(Cl)ccc3S2(=O)=O)c1C` [Example 86, 5-((1S,2R)-1-(6-chloro-4-((S)-1-methylpyrrolidin-3-yl)-1,1-dioxido-3,4-dihydro-2H-benzo[e][1,2,4]thiadiazin-2-yl)-2-(6-fluoro-2,3-dimethylphenyl)propyl)-1,3,4-oxadiazol-2 (3H)-one], the IC50 in experiment [1] was 1000 to 5000 nM; in experiment [2], less than 20 nM.
The matching figures for `Cc1ccc(F)c([C@@H](C)[C@@H](c2n[nH]c(=O)o2)N2CN(C[C@H]3CCCO3)c3cc(Cl)ccc3S2(=O)=O)c1C` [Example 52, 5-((1S,2R)-1-(6-chloro-1,1-dioxido-4-(((R)-tetrahydrofuran-2-yl)methyl)-3,4-dihydro-2H-benzo[e][1,2,4]thiadiazin-2-yl)-2-(6-fluoro-2,3-dimethylphenyl)propyl)-1,3,4-oxadiazol-2 (3H)-one]: no more than 1000 nM and less than 20 nM.
For the molecule `CC(=O)N1CN([C@H](c2n[nH]c(=O)o2)[C@H](C)c2c(F)ccc(C)c2C)S(=O)(=O)c2ccc(Cl)cc21` [Example 56, 5-((1S,2R)-1-(4-acetyl-6-chloro-1,1-dioxido-3,4-dihydro-2H-benzo[e][1,2,4]thiadiazin-2-yl)-2-(6-fluoro-2,3-dimethylphenyl)propyl)-1,3,4-oxadiazol-2 (3H)-one], the half-inhibitory concentration (IC50) in experiment [1] is 1000 to 5000 nM; in experiment [2], less than 20 nM.
For the molecule `Cc1ccc(F)c([C@@H](C)[C@@H](c2n[nH]c(=O)o2)N2CN([C@@H]3CCNC3)c3cc(Cl)ccc3S2(=O)=O)c1C` [Example 58, 5-((1S,2R)-1-(6-chloro-1,1-dioxido-4-((R)-pyrrolidin-3-yl)-3,4-dihydro-2H-benzo[e][1,2,4]thiadiazin-2-yl)-2-(6-fluoro-2,3-dimethylphenyl)propyl)-1,3,4-oxadiazol-2 (3H)-one], the values for the IC50 in experiment [1] and in experiment [2] were 10000 to 50000 nM and 20 to 100 nM, respectively.
The matching figures for `Cc1ccc(F)c([C@@H](C)[C@@H](c2n[nH]c(=O)o2)N2CN(C)c3cc(Cl)cnc3S2(=O)=O)c1C` [Example 5, 5-((1S,2R)-1-(6-chloro-4-methyl-1,1-dioxido-3,4-dihydro-2H-pyrido[3,2-e][1,2,4]thiadiazin-2-yl)-2-(6-fluoro-2,3-dimethylphenyl)propyl)-1,3,4-oxadiazol-2 (3H)-one]: 1000 to 5000 nM and 20 to 100 nM.
With `Cc1ccc(F)c([C@@H](C)[C@@H](c2n[nH]c(=O)o2)N2CN(C)c3cc(Cl)cc(C)c3S2(=O)=O)c1C` [Example 26, 5-((1S,2R)-1-(6-chloro-4,8-dimethyl-1,1-dioxido-3,4-dihydro-2H-benzo[e][1,2,4]thiadiazin-2-yl)-2-(6-fluoro-2,3-dimethylphenyl)propyl)-1,3,4-oxadiazol-2 (3H)-one], the IC50 in experiment [1] fell in the range of 10000 to 50000 nM; in experiment [2], 20 to 100 nM.
The matching figures for `Cc1ccc(F)c([C@@H](C)[C@@H](c2n[nH]c(=O)o2)N2CN(C3CCCOC3)c3cc(Cl)ccc3S2(=O)=O)c1C` (stereo in doubt) [Example 43, 5-((1S,2R)-1-(6-chloro-1,1-dioxido-4-((S)-tetrahydro-2H-pyran-3-yl)-3,4-dihydro-2H-benzo[e][1,2,4]thiadiazin-2-yl)-2-(6-fluoro-2,3-dimethylphenyl)propyl)-1,3,4-oxadiazol-2 (3H)-one]: no more than 1000 nM and less than 20 nM.
The matching figures for `CC(=O)c1cc(Cl)cc2c1S(=O)(=O)N([C@H](c1n[nH]c(=O)o1)[C@@H](C)c1c(F)ccc(C)c1C)CO2` [Example 103, 5-((1S,2S)-1-(8-acetyl-6-chloro-1,1-dioxidobenzo[e][1,4,3]oxathiazin-2 (3H)-yl)-2-(6-fluoro-2,3-dimethylphenyl)propyl)-1,3,4-oxadiazol-2 (3H)-one]: 5000 to 10000 nM and 1000 to 10000 nM.
As to `Cc1ccc(F)c([C@@H](C)[C@@H](c2n[nH]c(=O)o2)N2CN(CC(F)F)c3nc(Cl)ccc3S2(=O)=O)c1C` [Example 81, 5-[(1S,2R)-1-[6-chloro-4-(2,2-difluoroethyl)-1,1-dioxo-3H-pyrido[2,3-e][1,2,4]thiadiazin-2-yl]-2-(6-fluoro-2,3-dimethyl-phenyl)propyl]-3H-1,3,4-oxadiazol-2-one], the IC50 was no more than 1000 nM in experiment [1] and less than 20 nM in experiment [2].
